The target in the first assay is full-length recombinant human FYN A (Homo sapiens (Human), UniProt P06241). The experiment in a line: ADP-Glo Kinase Assay of FYN kinase inhibition. It is filed as biochemical. The following applies: primary screen, initial compounds. The gist of the method:
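ADP-Glo read-out of peptide phosphorylation after 90 min RT with 12.5 pmol ATP and 100 pg 12-mer substrate. Enzyme was N-GST full-length human FYN A from insect cells, 3 pg, pre-incubated 30 min with compound, 10 points from 10 μM top, 3-fold steps; IC50 from curve.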
Chain of full-length recombinant human FYN A (P06241 whole entry): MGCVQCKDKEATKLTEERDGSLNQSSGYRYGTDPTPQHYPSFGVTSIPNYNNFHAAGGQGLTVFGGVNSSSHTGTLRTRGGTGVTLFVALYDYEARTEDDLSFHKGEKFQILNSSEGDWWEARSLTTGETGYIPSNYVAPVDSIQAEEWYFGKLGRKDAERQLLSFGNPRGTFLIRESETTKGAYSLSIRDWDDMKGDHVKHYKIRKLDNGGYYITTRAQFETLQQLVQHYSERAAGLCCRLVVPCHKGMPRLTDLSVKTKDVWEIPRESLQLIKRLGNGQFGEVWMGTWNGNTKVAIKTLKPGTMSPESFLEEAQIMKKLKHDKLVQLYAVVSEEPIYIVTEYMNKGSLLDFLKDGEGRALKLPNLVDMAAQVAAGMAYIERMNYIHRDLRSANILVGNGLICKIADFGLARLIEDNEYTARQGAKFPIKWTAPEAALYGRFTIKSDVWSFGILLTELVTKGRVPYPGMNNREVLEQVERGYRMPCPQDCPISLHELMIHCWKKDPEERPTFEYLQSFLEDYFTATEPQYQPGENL
As usually defined, the IC50 is the midpoint of a concentration-inhibition curve. In the case of `COCOc1ccc(-c2cc(-c3cccc(CO)c3)cnc2N)cc1` [382_0341_0291, [3-[6-amino-5-[4-(methoxymethoxy)phenyl]-3-pyridyl]phenyl] methanol], the IC50 is 4.62 µM. On the same count and under the same terms, the value for `COc1cc(-c2cc(-c3ccoc3)cnc2N)cc(OC)c1OC` [382_0087_0343, 5-(3-furyl)-3-(3,4,5-trimethoxy-phenyl)pyridin-2-amine] was 12.1 µM; that for `OCc1cccc(-c2cnc3ccc(-c4cccnc4)nn23)c1` [Compound 301, [3-[6-(3-pyridyl)imidazo [1,2-b]pyridazin-3-yl]phenyl] methanol] was 2.04 µM. Take `CN(C)C(=O)c1cccc(-c2cnc3sc(NCCc4ccncc4)nn23)c1` [Compound 558, N,N-dimethyl-3-[2-[2-(4-pyridyl)ethyl-amino]imidazo [2,1-b][1,3,4]thiadiazol-5-yl]benzamide]: the IC50 was determined as 0.721 µM. Same read-out and setting: then `COc1ccccc1-c1n[nH]c2nccc(-c3ccco3)c12` [Compound 531, 4-(2-furyl)-3-(2-methoxyphenyl)-1H-pyrazolo[3,4-b]pyridine], with 2.28 µM; and `COc1cncc(-c2cnc3sc(NCC4CCOCC4)nn23)c1` [Compound 587, 5-(5-methoxy-3-pyridyl)-N-(tetrahydro-pyran-4-ylmethyl)imidazo [2,1-d][1,3,4] thiadiazol-2-amine], with 0.384 µM. `COc1cc(-c2n[nH]c3nccc(-c4ccc(S(C)(=O)=O)cc4)c23)cc(OC)c1OC` [Compound 525, 4-(4-methylsulfonyl-phenyl)-3-(3,4,5-trimethoxy-phenyl)-1H-pyrazolo[3,4-b]pyridlne]: the IC50 stood at 11.2 µM. On the same count and under the same terms, then `Oc1cccc(-c2cnc3cnc(-c4ccc(NCCN5CCOCC5)nc4)cn23)c1` [Compound 241, 3-[6-[6-(2-morpholino-ethylamino)-3-pyridyl]imidazo [1,2-a]pyrazin-3-yl]phenol], with 2.94 µM. On the same count and under the same terms, then `CS(=O)(=O)c1ccc(Nc2cc3[nH]c(-c4cn[nH]c4)cc3cn2)cc1` [Compound 307, N-(4-methyl-sulfonylphenyl)-2-(1H-pyrazol-4-yl)-1H-pyrrolo[3,2-c]pyridin-6-amine], with 4.78 µM. On the same count and under the same terms, then `COc1ccc(-c2cnc3ccc(NCc4cccc(Cl)c4)nn23)cn1` [229_0223_0311, N-[(3-chlorophenyl)methyl]-3-(6-methoxy-3-pyridyl)imidazo [1,2-b]pyridazin-6-amine], with 8.34 µM. Turning to `Cn1cc(-c2cnc3cnc(-c4ccccc4Oc4ccccc4)cn23)cn1` [Compound 229, 3-(1-methylpyrazol-4-yl)-6-(2-phenoxyphenyl) imidazo[1,2-a]pyrazine], the IC50 amounted to 1.82 µM. Same read-out and setting: then `Oc1cccc(-c2ccc3ncc(-c4ccc5c(c4)OCO5)n3n2)c1` [Compound 351, 3-[3-(1,3-benzodioxol-5-yl)imidazo[1,2-b]pyridazin-6-yl]phenol], with 0.915 µM.

Consider `CC(=O)c1cccc(-c2ccnc3[nH]nc(C4CCNCC4)c23)c1` [Compound 512, 1-[3-[3-(4-piperidyl)-1H-pyrazolo[3,4-b]pyridin-4-yl]phenyl] ethanone], for which the IC50 is 19.7 µM.

In the case of `COc1cc(-c2cc(-c3cccc(Cl)c3)cnc2N)ccc1O` [382_0314_0279, 4-[2-amino-5-(3-chlorophenyl)-3-pyridyl]-2-methoxy-phenol], the IC50 came out at 3.51 µM. On the same count and under the same terms, the value for `CC(C)[C@@H](CO)Nc1ccc2ncc(-c3ccc(N)cc3)n2n1` [229_0254_0333, (2S)-2-[[3-(4-aminophenyl)imidazo[1,2-b]pyridazin-6-yl]amino]-3-methyl-butan-1-ol] was 3.05 µM; that for `COc1cc(-c2cnc3cnc(-c4cccc(C(=O)NCCO)c4)cn23)ccc1O` [388_0314_0192, N-(2-hydroxyethyl)-3-[3-(4-hydroxy-3-methoxy-phenyl)imidazo [1,2-a]pyrazin-6-yl]benzamide] was 0.896 µM; that for `COc1cccc(-c2ccc3ncc(-c4cccc(O)c4)n3n2)c1` [Compound 355, 3-[6-(3-methoxyphenyl)imidazo[1,2-b]pyridazin-3-yl]phenol] was 1.24 µM. On the same count and under the same terms, the value for `Nc1ccc(-c2cn3c(-c4cccc(O)c4)cnc3cn2)cn1` [Compound 238, 3-[6-(6-amino-3-pyridyl)imidazo [1,2-a]pyrazin-3-yl]phenol] was 2.89 µM.

`CN(C)CCCNC(=O)c1ccc(-c2cn3c(-c4ccc(Cl)cc4)cnc3cn2)cc1` [Compound 236, 4-[3-(4-chlorophenyl)imidazo[1,2-a]pyrazin-6-yl]-N-[3-(dimethylamino)propyl]benzamide]: the IC50 was 4.9 µM.

Turning to `CN(C)CCNC(=O)c1ccc(-c2cn3c(-c4cccs4)cnc3cn2)cc1` [388_4147_0327, N-(2-dimethylamino-ethyl)-4-[3-(2-thienyl)imidazo [1,2-a]pyrazin-6-yl]benzamide], the IC50 is 8.52 µM.

For the molecule `Cn1cc(-c2cn3c(-c4cccc(O)c4)cnc3cn2)cn1` [Compound 214, 3-[6-(1-methylpyrazol-4-yl)imidazo[1,2-a]pyrazin-3-yl]phenol], the IC50 was 2.78 µM.

As for `Cn1c(-c2cccc(F)c2)cc2cnc(Nc3ccncn3)cc21` [Compound 593, 2-(3-fluorophenyl)-1-methyl-N-pyrimidin-4-yl-pyrrolo[3,2-c]pyridin-6-amine], the IC50 was 9.09 µM. The same measure, in the same setting: then `COCOc1ccc(-c2cc(-c3ccc(C(N)=O)cc3)cnc2N)cc1` [382_0341_0346, 4-[6-amino-5-[4-(methoxy-methoxy)phenyl]-3-pyridyl] benzamide], with 3.42 µM.

For `c1coc(-c2cn3c(-c4ccsc4)cnc3cn2)c1` [Compound 203, 6-(2-furyl)-3-(3-thienyl)imidazo [1,2-a]pyrazine], the IC50 is 6.25 µM. On the same count and under the same terms, then `COc1ccccc1-c1n[nH]c2nccc(/C=C/c3ccccc3)c12` [Compound 500, 3-(2-methoxyphenyl)-4-[(E)-styryl]-1H-pyrazolo[3,4-b]pyridine], with 1.13 µM; and `COc1cc(-c2cnc3cnc(-c4ccc(C(=O)NCCCN(C)C)cc4)cn23)ccc1O` [388_0314_0180, N-[3-(dimethylamino)propyl]-4-[3-(4-hydroxy-3-methoxy-phenyl)imidazo [1,2-a]pyrazin-6-yl]benzamide], with 0.606 µM; and `COc1cc(-c2n[nH]c3nccc(-c4ccc(C(C)C)cc4)c23)cc(OC)c1OC` [Compound 505, 4-(4-isopropylphenyl)-3-(3,4,5-trimethoxy-phenyl)-1H-pyrazolo[3,4-b]pyridine], with 20.9 µM.

On to `COc1cc(-c2cnc3cnc(-c4ccc(NCCN5CCOCC5)nc4)cn23)ccc1O` [388_0314_0003, 2-methoxy-4-[6-[6-(2-morpholinoethyl-amino)-3-pyridyl]imidazo [1,2-a]pyrazin-3-yl]phenol], for which the IC50 came out at 1.35 µM.

As for `COc1cc(-c2cnc(N)c(-c3cccc(N(C)C)c3)c2)cc(OC)c1OC` [382_0135_0087, 3-[3-(dimethyl-amino)phenyl]-5-(3,4,5-trimethoxy-phenyl)pyridin-2-amine], the IC50 was 3.13 µM. The same measure, in the same setting: then `Cc1cc(-c2cnc(N)c(-c3ccc(CO)cc3)c2)cc(C)c1O` [382_0285_0315, 4-[6-amino-5-[4-(hydroxymethyl)phenyl]-3-pyridyl]-2,6-dimethyl-phenol], with 4.64 µM.

For `Fc1ccc(-c2cnc3ccc(NCc4cccs4)nn23)cc1` [229_0146_0339, 3-(4-fluoro-phenyl)-N-(2-thienylmethyl) imidazo[1,2-b]pyridazin-6-amine], the IC50 worked out at 3.28 µM. Same read-out and setting: the value for `Oc1cccc(-c2cnc3ccc(-c4cccnc4)nn23)c1` [Compound 396, 3-[6-(3-pyridyl)imidazo [1,2-b]pyridazin-3-yl]phenol] was 0.586 µM. Consider `Cc1cccc(Cc2ccc3ncc(-c4ccc(C(N)=O)cc4)n3n2)c1` [Compound 468, 4-[6-(m-tolylmethyl)imidazo[1,2-b]pyridazin-3-yl]benzamide], for which the IC50 worked out at 3.1 µM.

On to `OCc1ccc(-c2cn3c(-c4ccc(Oc5ccccc5)cc4)cnc3cn2)cc1` [Compound 207], for which the IC50 was determined as 4.72 µM. Still for that read-out and setting: the value for `Cn1c(-c2cccc(C(F)(F)F)c2)cc2cnc(Nc3ccncn3)cc21` [Compound 591, 1-methyl-N-pyrimidin-4-yl-2-[3-(trifluoro-methyl)phenyl] pyrrolo[3,2-c]pyridin-6-amine] was 16.8 µM; that for `Nc1ccc(-c2cn3c(-c4cccs4)cnc3cn2)cn1` [388_4147_7905, 5-[3-(2-thienyl)imidazo [1,2-a]pyrazin-6-yl]pyridin-2-amine] was 8.16 µM. On the same count and under the same terms, then `CC(=O)c1cccc(-c2cnc3ccc(-c4cccc(CO)c4)nn23)c1` [Compound 421, 1-[3-[6-[3-(hydroxymethyl)phenyl]imidazo [1,2-b]pyridazin-3-yl]phenyl] ethanone], with 0.179 µM.

The same assay, now with this note: secondary screen, re-synthesized and expanded compounds.
Turning to `COc1cc(-c2cc(-c3ccc(S(C)(=O)=O)cc3)cnc2N)ccc1O` [BF000313040, 4-[2-amino-5-(4-methyl-sulfolyl-phenyl)-3-pyridyl]-2-methoxy-phenol], the IC50 turned out to be 0.316 µM. Still for that read-out and setting: the value for `c1cc(-c2cnc3ccc(NC4CCOCC4)nn23)ccn1` [BF000817099, 3-(4-pyridyl)-N-tetrahydro-pyran-4-yl-imidazo[1,2-b]pyridazin-6-amine] was 0.27 µM; that for `COc1ccc(-c2cnc3sc(NC4CCC(O)CC4)nn23)cc1OC` (stereo not drawn) [BF000717406, 4-[[5-(3,4-dimethoxy-phenyl)-imidazo[2,1-b][1,3,4]-thiadiazol-2-yl]amino]-cyclohexanol] was 0.44 µM; that for `COc1cc(-c2cc(-c3ccc(N4CCOCC4)cc3)cnc2N)ccc1O` [BF000817413, 4-[2-amino-5-(4-morpholino-phenyl)-3-pyridyl]-2-methoxy-phenol] was 0.212 µM. Same read-out and setting: the value for `COc1cc(-c2cnc(N)c(-c3ccc(O)cc3)c2)cc(OC)c1OC` [BF000313556, 4-[2-amino-5-(3,4,5-trimethoxy-phenyl)-3-pyridyl]-phenol] was 0.288 µM.

These data come from patent US10688093B2, “Methods, compositions, and uses of novel Fyn kinase inhibitors” (priority 2015, dated 2020).
